# Assay results reported in US20250177339A1, “Methods for Treating Tauopathy” (BioJiva LLC, priority 2020, published 2025).
# “Also recorded” adds a separate entry of the source.
# Tests used:
# [1] = Pharmacokinetic sampling: ratio of D2-AA to AA in red blood cells of treated patients; format: in vivo, human
# Procedure: (§1) Three patients diagnosed with likely PSP underwent baseline assessment using the 28-item Progressive Supranuclear Palsy Rating Scale (PSPRS) and the Unified Parkinson's Disease Rating Scale (UPDRS). They were then treated with D2-Lin (2.88 g BID; 5.76 g total daily dose) and observed for disease progression. The second patient had their dose increased (2.88 g TID; 8.64 g total daily dose) after the first year of treatment. During the treatment period, scores in the 2 rating scales were determined every 3 months. Pharmacokinetic (PK) sampling was performed at month 3. These analytes included plasma and RBC membrane levels of (D2-LA) and its centrally active metabolite D2-AA.
# At 3 months, the following data was collected:
# At 12 months, the following data was collected:
# The above results evidence that a percent ratio of 11,11-D2-AA to AA in red blood cells of about 3% is necessary to achieve therapeutic results.
# [2] = tested on: SROS-MSC; test: Mitochondrial DNA level (PicoGreen fluorescence in non-nuclear area) in SROS MSCs; format: cell-based, human; conditions: after 72 hours incubation, from 67.5% before, relative to control MSC 100%
# Procedure: (§2) The effect of D2-Lin on mesenchymal stem cells derived from patients with SROS was assessed using non-deuterated Lin as a control. MSC preparations from bone marrow aspirates from control subjects were compared to 3 subjects with SROS, following protocols described in Hill S., et al., Free Radic. Biol. Med. (2012) 53:893-906; and Cotticelli M G., et al., Redox Biol. (2013) 1:398-404.
# (§3) The number of mitochondria within the cells is regulated by the balance between mitochondrial biogenesis and mitophagy. Accordingly, for the normal maintenance of the mitochondrial balance, SROS-MSCs should activate mitochondrial biogenesis. […] Various factors, for example excessive fusion can result in a lower number of mitochondria in the cell, leading to impaired respiration, a lower production of ATP, and increased oxidative damage. Arun et al., Curr. Neuropharmacol. (2016) 14:143-154. However, after 72 hours incubation of the cells with D2-PUFAs mitochondrial DNA increased for both control and SROS MSCs.
# [3] = tested on: patients diagnosed with likely PSP; test: Progressive Supranuclear Palsy Rating Scale (PSPRS) in treated patients; format: in vivo, human; conditions: three PSP patients; 2.88 g BID; after 3 months of therapy; historical decline 0.91 points/month; +/-0.23 SEM
# Procedure: as §1
# (§4) The three patients were 2 males ([…]) and one person each of whom had pre-treatment symptom duration of 6 years and 3 years for the two males and 2 years for the person. The baseline PSPRS for the two males was 17 and 12 respectively and 13 for the person. The baseline UPDRS for the two males was 44 and 36 respectively and 21 for the person.
# (§5) After 3 months of therapy, the slope of the PSPRS changed from the historical decline of 0.91 points/month to a mean of decline of 0.16 points/month (+/−0.23 SEM). The UPDRS slope changed from an expected increase of 0.95 points/month to an average increase in score of 0.28 points/month (+/−0.41 SEM).
# [4] = tested on: SROS MSCs; test: Rate of lipid peroxidation (BODIPY C11) in SROS/PSP MSCs; format: cell-based, human; conditions: 72-hour incubation; for rate of lipid peroxidation (LPO), in words: SROS/PSP MSCs, BODIPY C11
# Procedure: as §2
# (§6) LPO has been implicated as an early and pivotal factor in SROS. Specifically, increased levels of n-6 PUFA oxidation products such as 4-HNE were reported, as a direct consequence of the LPO chain reaction. Accordingly, the difference in basal MMP and ROS generation between control and the 3 cell lines of SROS MSCs was associated with increased rates of LPO, as detected by the LPO-specific probe, BODIPY C11.
# (§7) MSC preparations from BM were obtained from control subjects and from the PSP subjects following previously described protocols. In short, MSCs were isolated from BM aspirates seeding 50,000 mononucleated cells/cm2 in αMEM (Thermo Fisher Scientific, Waltham, MA, USA) supplemented with 10% fetal bovine serum (FBS; Thermo Fisher Scientific), in T75 flasks. The cultures were incubated at 37° C., 20% O2, 5% CO2. Medium changes were performed twice a week. Two weeks after initial seeding, primary MSC colonies were detached with a 10-minute incubation at 37° C. with TrypLE Select Enzyme (Thermo Fisher Scientific) and replated at 4000 cells/cm^2 in the same medium. MSC identity was previously assessed. Subsequent passages were performed following the same steps. Passage 4-6 MSCs were used for all experiments. […]
# Lipid peroxidation was measured using confocal microscopy (Zeiss 710 LSM with an integrated META detection system). The rate of lipid peroxidation was measured using C11-BODIPY 581/591 ([…]; Molecular probes) which was excited by the 488 and 543 nm laser line and fluorescence measured using a band-pass filter from 505 to 550 nm and 560 nm long-pass filter (40× oil-objective). […]
# [5] = tested on: control MSC; test: Mitochondrial DNA level (PicoGreen fluorescence in non-nuclear area) in control MSCs; format: cell-based, human; conditions: after 72 hours incubation, from 100% before
# Procedure: as §2, §3
# [6] = tested on: patients diagnosed with likely PSP; test: Unified Parkinson's Disease Rating Scale (UPDRS) in treated patients; format: in vivo, human; conditions: three PSP patients; 2.88 g BID; after 3 months of therapy; expected increase 0.95 points/month; +/-0.41 SEM
# Procedure: as §1, §4, §5
# [7] = tested on: SROS MSCs; test: Mitochondrial shape in SROS MSCs; format: cell-based, human; conditions: pre-treatment
# Procedure: as §2
# Presynaptic terminals typically contain multiple mitochondria. Misshaped mitochondria can clog the pathways that transport them along neurons and through long axons and elaborate dendritic arbors. Mattson et al., Neuron (2009) 60:748-766. Accordingly, mitochondrial shape is another characteristic of mitochondrial health. Also, the communication pathway between ER and mitochondria through MAM is compromised in misshaped mitochondria, further disturbing protein folding, lipid metabolism, Ca^2+ homeostasis and apoptosis. Lee et al., Mol. Cells (2018) 41:1000-1007. Coincident with the improvements in MMP with D-PUFA incubation, the abnormalities of mitochondrial shape seen in SROS MSCs were improved with D-PUFA pre-treatment, resulting in more uniformly looking mitochondria.
# [8] = tested on: MSCs derived from patients with SROS; test: Mitochondrial health (morphology, number, function) of SROS MSCs; format: cell-based, human; conditions: incubation for 72 hours
# Procedure: as §2
# These include changes in mitochondrial morphology, number, and function.
# [9] = tested on: SROS MSCs; test: Glutathione level (monochlorobimane) in SROS/PSP MSCs; format: cell-based, human; conditions: for glutathione (GSH) level, in words: SROS/PSP MSCs, MCB intensity
# Procedure: as §2
# Glutathione-related machinery is the major mechanism involved with slowing down the inhibition/propagation the LPO chain as well as mopping up the toxic end products of LPO. Consumption of the endogenous antioxidant glutathione is an indirect measure of oxidative stress.
# as §7
# For assessments of glutathione levels, the PSP-MSCs cultures were incubated with 50 μM monochlorobimane (MCB) (Molecular Probes, Invitrogen) for 40 minutes in HEPES buffered salt solution prior to imaging. Cells were then washed with HEPES buffered salt solution and images of the fluorescence of the MCB-GSH were acquired using a Zeiss 710 CLSM with excitation at 405 nm and emission at 435-485 nm. Mitochondrial ROS generation rate was assessed using MitoTracker® Red CM-H2XRos (Thermo Fisher Scientific) which accumulates into mitochondria upon oxidation. The fluorescence measurement was obtained by excitation with 561 nm laser and emission detected above 580 nm. Mitochondrial membrane potential (ΔΨm) was assessed using 25 nM tetramethylrhodamine methyl ester (TMRM, Thermo Fisher Scientific) at 560 nm excitation and fluorescence was measured above 580 nm. Z-stack images were collected and the fluorescence intensity of TMRM was analyzed using Zen software (Zeiss). […]
# Glutathione levels were measured using MCB. […]
# [10] = tested on: control MSCs; test: Mitochondrial membrane potential (fluorescent indicator, TMRM) in control MSCs; format: cell-based, human; conditions: incubation for 72 hours
# Procedure: as §2
# (§8) MMP is an important indicator of mitochondrial health and is typically kept at […] values (100-140 mV). A long-lasting drop or rise of normal MMP levels may induce loss of cell viability and various pathologies. ROS and LPO levels are directly linked to MMP, and increase exponentially at MMP>140 mV. […]
# (§9) MSC preparations from BM were obtained from control subjects and from the PSP subjects following previously described protocols. […] MSC identity was previously assessed. […]
# (§10) For assessments of glutathione levels, the PSP-MSCs cultures were incubated with 50 μM monochlorobimane (MCB) (Molecular Probes, Invitrogen) for 40 minutes in HEPES buffered salt solution prior to imaging. Cells were then washed with HEPES buffered salt solution and images of the fluorescence of the MCB-GSH were acquired using a Zeiss 710 CLSM with excitation at 405 nm and emission at 435-485 nm. […] The fluorescence measurement was obtained by excitation with 561 nm laser and emission detected above 580 nm. […]
# [11] = tested on: control MSCs; test: Rate of lipid peroxidation (BODIPY C11) in control MSCs; format: cell-based, human; conditions: 72-hour incubation
# Procedure: as §2, §6
# Lipid peroxidation was measured using confocal microscopy (Zeiss 710 LSM with an integrated META detection system). The rate of lipid peroxidation was measured using C11-BODIPY 581/591 ([…]; Molecular probes) which was excited by the 488 and 543 nm laser line and fluorescence measured using a band-pass filter from 505 to 550 nm and 560 nm long-pass filter (40× oil-objective). Illumination intensity was kept to a minimum (0.1-0.2% of laser output) to prevent phototoxicity and the pinhole was set to give an optical slice of […]. […]
# [12] = tested on: SROS-MSCs; test: Mitochondrial membrane potential (fluorescent indicator, TMRM) in SROS MSCs; format: cell-based, human; conditions: SROS cells from SROS patients; incubation for 72 hours
# Procedure: as §2, §8, §9, §10
SMILES,"% ratio of 11,11-D2-AA to AA ([1]; Patient 1, evaluated at 4 months of D2-Lin treatment)","% ratio of 11,11-D2-AA to AA ([1]; Patient 1, evaluated at 13 months of D2-Lin treatment)","% ratio of 11,11-D2-AA to AA ([1]; Patient 2, at 3 months of D2-Lin treatment)","% ratio of 11,11-D2-AA to AA ([1]; Patient 2, at 12 months of D2-Lin treatment)","% ratio of 11,11-D2-AA to AA ([1]; Patient 3, at 3 months of D2-Lin treatment)","% ratio of 11,11-D2-AA to AA ([1]; Patient 3, at 12 months of D2-Lin treatment)",level of mitochondrial DNA (estimation of number of mitochondria) [2],"slope of the PSPRS, mean decline [3]","rate of lipid peroxidation (LPO) ([4]; SROS MSCs, % of control, from 161.8% before, N=8)","rate of lipid peroxidation (LPO), in words [4]",level of mitochondrial DNA (estimation of number of mitochondria) [5],"UPDRS slope, average increase in score [6]",abnormalities of mitochondrial shape [7],"mitochondrial morphology, number, and function [8]","glutathione (GSH) level, in words [9]","glutathione (GSH) level, in words ([9]; listed as D2-PUFAs)",mitochondrial membrane potential (MMP) [10],"rate of LPO, % of the pre-treatment value [11]",mitochondrial membrane potential (MMP) [12],"glutathione levels less than those found in the D2-Lin test ([9]; PSP MSCs, after incubation, compared with D2-Lin-incubated PSP MSCs)"
"[2H]C([2H])(/C=C\C/C=C\C/C=C\CCCC(=O)O)/C=C\CCCCC [13,13-D2-Arachadonic acid]",5.9%,10.5%,3.3%,6.9%,5%,8.6%,,,,,,,,,,,,,,
"[2H]C([2H])(/C=C\CCCCC)/C=C\CCCCCCCC(=O)O [D2-Lin, 11,11-D2-Linoleic acid]",,,,,,,105.4%,0.16 points/month,109.8%,reversed; also recorded: restored the SROS MSCs to normal levels; also recorded: returned to normal levels,109%,0.28 points/month,improved,restores these parameters to control MSC levels,reversed; also recorded: restored to HC levels,significantly increased,no effect,84.3%,reduced,
"CCCCC/C=C\C/C=C\CCCCCCCC(=O)O [H2-LA, Non-deuterated linoleic acid, reference compound]",,,,,,,,,,remained elevated at over two times that of the treated levels,,,,,remained low,,,,,about 30%
